The source of these data is patent publication US5547971A, “Use of leflunomide for inhibiting interleukin 8” (priority 1993, dated 1996).

A word on the half-life: it is how long it takes for the measured level to halve.

Structures are written as SMILES.

One series deals with IL-8. Put plainly: IL-8 synthesis and liberation induced by lipopolysaccharide in isolated human blood mononuclear cells (IL-8 in the supernatant, sandwich enzyme immuno test). The following applies: for activity at 50 µM / activity at 100 µM: Homo sapiens, control without substance set at 100%, 37° C., 1 h, lipopolysaccharide-induced, read-out: IL-8 in the supernatant % +/- standard deviation; for activity at 50 µM: concentration 0.05 mmol/l; for activity at 100 µM: concentration 0.1 mmol/l; for effect on the IL-8 level / effect on the synthesis and liberation of cytokines from human blood cells: in words; for effect on the IL-8 level: experiments in Tab. 1. Format: cell-based. Here is the method: 10 ml of freshly prepared human citrate blood were carefully underlaid with 15 ml of Lymphoprep^(R) (Molter GmbH, Heidelberg) and then centrifuged at 400 ×g for 40 min. at 20° C. The cell fraction which was visible as a white ring at the phase boundary was removed with the aid of a syringe, diluted 1:1 (v/v) with PM-16 buffer (from Serva Feinbiochemica GmbH & Co. KG, Heidelberg) and then centrifuged, as above, for 10 min. […] Using a cell counter (type IT, from Coulter Diagnostics, Krefeld), the cell suspension, which is composed of about 90% lymphocytes and 10% monocytes, was adjusted to about 5 million cells/mi. Cell viability was monitored before and after the inhibition experiments using the known lactate dehydrogenase method.
The synthesis and liberation of cellular IL-8 was induced by adding a solution of 500 ng of lipopolysaccharide (Salmonella abortus equi, Sigma GmbH, Deisenhofen) in 0.01 ml of dimethyl sulfoxide/water (1:10, v/v) to 0.48 ml of the above-described cell fraction. At the same time, a solution of leflunomide or leflunomide metabolite in 0.01 ml of dimethyl sulfoxide (for the final concentration in each case, see Tab. 1) was added to the cell fraction and the mixture was left at 37° C. for 1h in a commercially available incubator. After cooling down to 0° C., the samples were centrifuged for 1 min. in a bench centrifuge and in each case 0.025 ml aliquots of the supernatant were examined for their […] content using a "sandwich" enzyme immuno test kit (from Biermann GmbH, Bad Nauheim) in accordance with the manufacturer's instructions. The control values were determined without the addition of leflunomide or its metabolites and set at 100%.

A further series deals with mononuclear cells. Kind of series: Metabolism of leflunomide in the mononuclear cell test sample (HPLC). Type of series: in vitro ADME, human. The following applies: in words; under the experimental conditions employed.
Test in series [1]: as above
The following applies: blood mononuclear cells; under the conditions employed; human mononuclear cell fraction; read-out: half life of metabolism of leflunomide to its metabolites (converted). Format: in vitro ADME, human.

For the compound `C/C(O)=C(\C#N)C(=O)Nc1ccc(C(F)(F)F)cc1` [Leflunomide metabolite, N-(4-trifluoromethylphenyl)-2-cyano-3-hydroxycrotonamide], in the series with IL-8, the activity at 50 µM stood at 97%; the activity at 100 µM was 99%; the “effect on the IL-8 level” value is reported as “practically no effect on the IL-8 level”; the “effect on the synthesis and liberation of cytokines from human blood cells” value is “does not exhibit this advantageous effect”.
On to `Cc1oncc1C(=O)Nc1ccc(C(F)(F)F)cc1` [Leflunomide, N-(4-trifluoromethylphenyl)-5-methylisoxazole-4-carboxamide], for which, in the series with mononuclear cells, the metabolism of leflunomide result is reported as “no appreciable metabolism”. The half-life in series [1] is roughly 10 h. In the series on IL-8, the activity at 50 µM turned out to be 83%; the activity at 100 µM was found to be 61 ± 11%; the “effect on the IL-8 level” value is “IL-8 level is clearly lowered”; the “effect on the synthesis and liberation of cytokines from human blood cells” value is listed as “strong inhibitory effect”.
